Source: US10633407B2, “14-membered ketolides and methods of their preparation and use” (President and Fellows of Harvard College, priority 2014, dated 2020)
≈ marks a conversion by molar mass, not a printed value.

Assays:
Experiment in all cases: CLSI broth dilution MIC determination
Format in all cases: cell-based
E. coli ATCC 25922 = details: E. coli ATCC 25922; Gram-negative
From the text: (§1) MIC data was collected for the novel macrolides that this platform has produced against over 21 unique strains of B. subtilis, E. coli, S. aureus, S. pneumoniae, and H. influenzae, including several multidrug-resistant strains, with a special focus on macrolide resistant mechanisms (vide supra). Azithromycin (Azithro) and Solithromycin (Solithro) were included as a control macrolides in many cases. CLSI standard procedures for broth dilution MIC determination were used. […] These genotypes can be constitutive or inducible.

E. coli CTX-M-14 = details: Gram-negative
From the text: as §1

E. coli NDM-1 = details: Gram-negative
From the text: as §1

E. coli TEM-1 = details: E. coli TEM-1; Gram-negative
From the text: as §1

H. influenzae ATCC49247 = details: Gram-negative
From the text: as §1

K. pneumoniae TEM-10 = details: Gram-negative
From the text: as §1

S. aureus ATCC 29213 = details: S. aureus ATCC 29213; Gram-positive
From the text: as §1

S. aureus MRSA: USA100 = details: S. aureus MRSA: USA100; Gram-positive
From the text: as §1

S. aureus MRSA: USA300 = details: S. aureus MRSA: USA300; Gram-positive
From the text: as §1

S. aureus USA600, GISA = details: S. aureus USA600, GISA; Gram-positive
From the text: as §1

S. aureus erm A genotype = details: S. aureus erm A genotype; Gram-positive
From the text: as §1

S. pneumoniae ATCC 49619 = details: S. pneumoniae ATCC 49619; Gram-positive
From the text: as §1

[1] = test system: S. pneumoniae mef A genotype (second strain so labelled); details: Gram-positive
From the text: as §1

S. pyogenes ATCC 19615 = details: S. pyogenes ATCC 19615; Gram-positive
[2] = test system: S. pyogenes Macrolide-resistant; details: S. pyogenes Macrolide-resistant; Gram-positive
E. faecalis ATCC 29212 = details: E. faecalis ATCC 29212; Gram-positive
[3] = test system: E. faecalis Vancomycin-resistant; details: E. faecalis Vancomycin-resistant; Gram-positive
A. baumannii ATCC 19606 = details: A. baumannii ATCC 19606; Gram-negative
[4] = test system: A. baumannii imipenem-resistant; details: Gram-negative
[5] = test system: A. baumannii chromosomal class C; details: Gram-negative
A. baumannii IMP-4 = details: Gram-negative
K. pneumoniae ATCC 10031 = details: K. pneumoniae ATCC 10031; Gram-negative
K. pneumoniae KPC-2 = details: Gram-negative
K. pneumoniae SHV-12 = details: Gram-negative
P. aeruginosa ATCC 27853 = details: P. aeruginosa ATCC 27853; Gram-negative
[6] = test system: P. aeruginosa HPA101-1477; details: Gram-negative
[7] = test system: H. influenzae Erythro >4, Azithro 1; details: H. influenzae Erythro >4, Azithro 1; Gram-negative
From the text: MIC data was collected for the novel macrolides that this platform has produced against over 21 unique strains of B. subtilis, E. coli, S. aureus, S. pneumoniae, and H. influenzae, including several multidrug-resistant strains, with a special focus on macrolide resistant mechanisms (vide supra). […] CLSI standard procedures for broth dilution MIC determination were used. […] These genotypes can be constitutive or inducible.

Structure (SMILES)	MIC (E. coli ATCC 25922)	MIC (E. coli CTX-M-14)	MIC (E. coli NDM-1)	MIC (E. coli TEM-1)	MIC (H. influenzae ATCC49247)	MIC (K. pneumoniae TEM-10)	MIC (S. aureus ATCC 29213)	MIC (S. aureus MRSA: USA100)	MIC (S. aureus MRSA: USA300)	MIC (S. aureus USA600, GISA)	MIC (S. aureus erm A genotype)	MIC (S. pneumoniae ATCC 49619)	MIC [1]	MIC (S. pyogenes ATCC 19615)	MIC [2]	MIC (E. faecalis ATCC 29212)	MIC [3]	MIC (A. baumannii ATCC 19606)	MIC [4]	MIC [5]	also measured
CC[C@H]1OC(=O)[C@@](C)(F)C(=O)[C@H](C)[C@@H](O[C@@H]2OC(C)CC(N(C)C)C2O)[C@](C)(OC)C[C@@H](C)C(=O)[C@H](C)[C@H]2N(C/C=C/Cn3cc(-c4cccc(N)c4)nn3)C(=O)O[C@]12C (stereo partly drawn) [FSM-11563]	16 µg/mL (≈ 19 µM)	> 32 µg/mL	> 32 µg/mL	16 µg/mL (≈ 19 µM)	2 µg/mL (≈ 2.37 µM)	32 µg/mL (≈ 38 µM)	0.0625 µg/mL (≈ 0.0741 µM)	> 32 µg/mL	0.125 µg/mL (≈ 0.148 µM)	> 32 µg/mL	> 32 µg/mL	≤ 0.0312 µg/mL	≤ 0.0312 µg/mL	≤ 0.0312 µg/mL	≤ 0.0312 µg/mL	≤ 0.0312 µg/mL	4 µg/mL (≈ 4.74 µM)	4 µg/mL (≈ 4.74 µM)	4 µg/mL (≈ 4.74 µM)	2 µg/mL (≈ 2.37 µM)	MIC (A. baumannii IMP-4): > 32 µg/mL; MIC (K. pneumoniae ATCC 10031): 4 µg/mL (≈ 4.74 µM); MIC (K. pneumoniae KPC-2): > 32 µg/mL; MIC (K. pneumoniae SHV-12): > 32 µg/mL; MIC (P. aeruginosa ATCC 27853): 32 µg/mL (≈ 38 µM); MIC [6]: > 32 µg/mL; MIC [7]: 4 µg/mL (≈ 4.74 µM)
CC[C@H]1OC(=O)[C@@](C)(F)C(=O)[C@H](C)[C@@H](O[C@@H]2OC(C)CC(N(C)C)C2O)[C@](C)(OC)C[C@@H](C)C(=O)[C@H](C)[C@H]2N(C/C=C/Cn3cc(-c4ccccn4)nn3)C(=O)O[C@]12C (stereo partly drawn) [FSM-100383]	8 µg/mL (≈ 9.65 µM)	> 32 µg/mL	32 µg/mL (≈ 38.6 µM)	16 µg/mL (≈ 19.3 µM)	0.5 µg/mL (≈ 0.603 µM)	16 µg/mL (≈ 19.3 µM)	< 0.0312 µg/mL	> 32 µg/mL	0.5 µg/mL (≈ 0.603 µM)	> 32 µg/mL	> 32 µg/mL	< 0.0312 µg/mL	< 0.0312 µg/mL	< 0.0312 µg/mL	< 0.0312 µg/mL	< 0.0312 µg/mL	> 32 µg/mL	4 µg/mL (≈ 4.83 µM)	8 µg/mL (≈ 9.65 µM)	8 µg/mL (≈ 9.65 µM)	MIC (A. baumannii IMP-4): > 32 µg/mL; MIC (K. pneumoniae ATCC 10031): 2 µg/mL (≈ 2.41 µM); MIC (K. pneumoniae KPC-2): > 32 µg/mL; MIC (K. pneumoniae SHV-12): > 32 µg/mL; MIC (P. aeruginosa ATCC 27853): > 32 µg/mL; MIC [6]: > 32 µg/mL; MIC [7]: 0.5 µg/mL (≈ 0.603 µM)
CC[C@H]1OC(=O)[C@@](C)(F)C(=O)[C@H](C)[C@@H](O[C@@H]2OC(C)CC(N(C)C)C2O)[C@](C)(OC)C[C@@H](C)C(=O)[C@H](C)[C@H]2N(C/C=C/Cn3cc(-c4cccc(N)n4)nn3)C(=O)O[C@]12C (stereo partly drawn) [FSM-100407]	16 µg/mL (≈ 19 µM)	> 32 µg/mL	> 32 µg/mL	> 32 µg/mL	1 µg/mL (≈ 1.18 µM)	32 µg/mL (≈ 37.9 µM)	< 0.0312 µg/mL	> 32 µg/mL	0.5 µg/mL (≈ 0.592 µM)	> 32 µg/mL	> 32 µg/mL	< 0.0312 µg/mL	< 0.0312 µg/mL	< 0.0312 µg/mL	< 0.0312 µg/mL	< 0.0312 µg/mL	16 µg/mL (≈ 19 µM)	8 µg/mL (≈ 9.48 µM)	8 µg/mL (≈ 9.48 µM)	8 µg/mL (≈ 9.48 µM)	MIC (A. baumannii IMP-4): > 32 µg/mL; MIC (K. pneumoniae ATCC 10031): 4 µg/mL (≈ 4.74 µM); MIC (K. pneumoniae KPC-2): > 32 µg/mL; MIC (K. pneumoniae SHV-12): > 32 µg/mL; MIC (P. aeruginosa ATCC 27853): 32 µg/mL (≈ 37.9 µM); MIC [6]: > 32 µg/mL; MIC [7]: 1 µg/mL (≈ 1.18 µM)
